TGI and GI50 data for 17 compounds are collected here from PubChem BioAssay (NCI).

Some test systems named below: HOP-92 NSCLC; EKVX NSCLC; A549 NSCLC; SF-268 CNS; OVCAR-3 ovarian; SK-MEL-5 melanoma; HL-60(TB) leukemia; NCI/ADR-RES ovarian; MDA-MB-231 breast; MDA-MB-435.
Common to all, as to test: growth of human tumour cells (NCI), 48 h

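Method: 48-hour compound exposure of cells in 96-well plates, five concentrations, linear interpolation of endpoints. GI50 is the concentration that inhibits growth by half. Definition used: TGI = concentration required for complete inhibition of growth.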

Take `CC(=O)c1ccc(OCC(O)CO)cc1` (configuration not stated): the TGI in the experiment with HOP-92 NSCLC, in the experiment on EKVX NSCLC, in the experiment with A549 NSCLC, in the experiment with SF-268 CNS, in the experiment on OVCAR-3 ovarian and in the experiment on SK-MEL-5 melanoma was over 100 µM in each case. This compound also came in with a TGI in the experiment with HL-60(TB) leukemia of over 100 µM.
As to `OCC(O)C(O)C(O)c1nn(-c2ccc(Cl)cc2)c2nc3cc(Cl)c(Cl)cc3nc12` (configuration not stated), the TGI with EKVX NSCLC was 67.9 µM; with A549 NSCLC, over 100 µM; with SF-268 CNS it was over 100 µM; in the experiment with OVCAR-3 ovarian it was over 100 µM; in the experiment with HL-60(TB) leukemia it was over 100 µM.
Take `CNCc1cc(OC)ccc1-c1ccc(OC)c(OC)c1OC`: the TGI with HOP-92 NSCLC, in the experiment on EKVX NSCLC, with A549 NSCLC, in the experiment on SF-268 CNS, with OVCAR-3 ovarian and with SK-MEL-5 melanoma was over 100 µM throughout. Besides, in the experiment on HL-60(TB) leukemia, the TGI was over 100 µM.
`CC(/C(=N\Nc1ccccc1)c1ccc(O)cc1)C1C(=O)Oc2ccccc21` (configuration not stated): the TGI in the experiment on EKVX NSCLC, in the experiment on A549 NSCLC, in the experiment on OVCAR-3 ovarian, in the experiment with SK-MEL-5 melanoma and in the experiment with HL-60(TB) leukemia was over 100 µM in each case.
In the case of `CCN1C(=O)N(CC)C2Nn3c(s/c(=C\c4ccccc4Br)c3=O)=NC21` (configuration not stated), the GI50 with HOP-92 NSCLC was 4.14 µM; in the experiment with EKVX NSCLC it was 2.3 µM; in the experiment with NCI/ADR-RES ovarian, 1.74 µM; with MDA-MB-231 breast it was 1.89 µM; in the experiment with A549 NSCLC it was 1.23 µM; in the experiment with SF-268 CNS, 2.54 µM. For the same compound, the results for the GI50 in the experiment on OVCAR-3 ovarian, in the experiment with SK-MEL-5 melanoma and in the experiment on HL-60(TB) leukemia were 1.05 µM, 1.71 µM and 1.28 µM, respectively. Also, the TGI in the experiment with HOP-92 NSCLC is 80.8 µM; in the experiment on EKVX NSCLC, over 100 µM; with NCI/ADR-RES ovarian it was 43.7 µM; with MDA-MB-231 breast, 8.62 µM; with A549 NSCLC it was over 100 µM; in the experiment with SF-268 CNS, 29 µM. Further, the TGI with OVCAR-3 ovarian was 5.02 µM; with SK-MEL-5 melanoma, 5.64 µM; in the experiment on HL-60(TB) leukemia it was 3.19 µM.
For `CCOC(=O)C1C2CCC(C2)C1(CCl)C(=O)OCC` (configuration not stated), the TGI with HOP-92 NSCLC, in the experiment on A549 NSCLC, in the experiment on SF-268 CNS, in the experiment with OVCAR-3 ovarian, with SK-MEL-5 melanoma and in the experiment with HL-60(TB) leukemia was over 100 µM in each case.
As for `CCN(CC)CCOc1ccccc1/C=C/c1noc2ccccc12`, the TGI turned out to be 31.9 µM with EKVX NSCLC; 38.8 µM with NCI/ADR-RES ovarian; 25.7 µM in the experiment on MDA-MB-231 breast; 37 µM with SF-268 CNS; 38.1 µM with OVCAR-3 ovarian; 16.5 µM with SK-MEL-5 melanoma. In addition, the TGI with HL-60(TB) leukemia was determined as 40.1 µM.
For the compound `NNC(=O)CNC(=O)c1ccc(Cl)cc1Cl`, the TGI with HOP-92 NSCLC, in the experiment on EKVX NSCLC, in the experiment with A549 NSCLC, in the experiment on SF-268 CNS, in the experiment with OVCAR-3 ovarian and in the experiment with SK-MEL-5 melanoma was over 100 µM in each case. In the experiment on HL-60(TB) leukemia, this compound registered a TGI of over 100 µM.
For `COC(=O)C(CC(C)C)NC(=O)NC12CC3CC(CC(F)(C3)C1)C2` (configuration not stated), the TGI in the experiment with HOP-92 NSCLC, in the experiment with EKVX NSCLC, in the experiment with A549 NSCLC, with OVCAR-3 ovarian, with SK-MEL-5 melanoma and in the experiment on HL-60(TB) leukemia was over 100 µM in each case.
`CCCCCCCCCCCCCC(=O)OCC1OC(n2cc(F)c(=O)[nH]c2=O)C(NC(=O)OCc2ccccc2)C(OC(=O)CCCCCCCCCCCCC)C1O` (configuration not stated): the TGI in the experiment on HOP-92 NSCLC, in the experiment on EKVX NSCLC, in the experiment with A549 NSCLC, with SF-268 CNS, in the experiment on OVCAR-3 ovarian and in the experiment with SK-MEL-5 melanoma was over 100 µM each time. This compound gave a TGI in the experiment with HL-60(TB) leukemia of over 100 µM.
Regarding `Cc1cccc2c1N(C(=O)/C=C\C(=O)O)C(c1c(C)[nH]c3ccccc13)C2` (configuration not stated), the TGI was 82.4 µM in the experiment on HOP-92 NSCLC; over 100 µM with EKVX NSCLC; over 100 µM in the experiment on A549 NSCLC; over 10 µM with SF-268 CNS; over 10 µM in the experiment on OVCAR-3 ovarian; 32.8 µM in the experiment on SK-MEL-5 melanoma. The TGI in the experiment with HL-60(TB) leukemia is 51.3 µM.
Turning to `CC[P+](C)(C)c1ccccc1`, the TGI in the experiment on EKVX NSCLC, with A549 NSCLC, with SF-268 CNS, in the experiment with OVCAR-3 ovarian and with SK-MEL-5 melanoma was over 100 µM each time.
For `COC(=O)/C(=N\Nc1nc(=S)[nH]n1N)C(C#N)c1ccccc1` (configuration not stated), the TGI in the experiment with EKVX NSCLC, in the experiment on A549 NSCLC, in the experiment with SF-268 CNS, in the experiment on OVCAR-3 ovarian, with SK-MEL-5 melanoma and with HL-60(TB) leukemia was over 100 µM in each case.
As to `CC1=NOC(=O)/C1=C/c1cccc2ccccc12`, the TGI in the experiment on HOP-92 NSCLC, with EKVX NSCLC, with A549 NSCLC, in the experiment on SF-268 CNS, with OVCAR-3 ovarian and with SK-MEL-5 melanoma was over 100 µM in each case. Further, the TGI in the experiment with HL-60(TB) leukemia is over 100 µM.
For `Cc1ccc2ncnc(N(CC(C)C)CC(C)C)c2c1`, the GI50 in the experiment on HOP-92 NSCLC is 8.36 µM; in the experiment on NCI/ADR-RES ovarian it was 10.4 µM; in the experiment with A549 NSCLC, 9.43 µM; in the experiment with MDA-MB-435, 18.5 µM; in the experiment on SF-268 CNS, 16.2 µM; with OVCAR-3 ovarian it was 16.3 µM. Moreover, the GI50 with SK-MEL-5 melanoma was 6.9 µM. In addition, the TGI in the experiment on HOP-92 NSCLC was found to be 24 µM; in the experiment with NCI/ADR-RES ovarian it was 24.6 µM; with A549 NSCLC, 25.3 µM; with MDA-MB-435, 34.7 µM; with SF-268 CNS, 37.7 µM; in the experiment with OVCAR-3 ovarian, 31.5 µM. Besides, the TGI with SK-MEL-5 melanoma was determined as 25.6 µM.
As to `CC(=O)Nc1cc(N(CCOS(C)(=O)=O)CCOS(C)(=O)=O)ccc1N=O`, the TGI in the experiment with HOP-92 NSCLC, with A549 NSCLC, with SF-268 CNS, in the experiment on OVCAR-3 ovarian, in the experiment on SK-MEL-5 melanoma and with HL-60(TB) leukemia was over 100 µM throughout.
With `O=C(O)C[C@H]1CCCCC12CCOC2=O` (some centres not stated), the TGI in the experiment on HOP-92 NSCLC, with EKVX NSCLC, with A549 NSCLC, with SF-268 CNS, with OVCAR-3 ovarian and with SK-MEL-5 melanoma was over 100 µM in each case. The same compound returned a TGI in the experiment on HL-60(TB) leukemia of over 100 µM.
